pIC50, pKi: −log10 of the molar value. Counter-ions that a name gives are not always drawn.
Tests used:
[1] = biological target: T1, Human adenosine A2b receptor (Homo sapiens, UniProt P29275); test: Inhibition of NECA-stimulated cAMP production in receptor-expressing CHOK1 cells; type: cell-based; settings: CHOK1 cells over-expressing human A2b receptor, NECA 30 nM
T1 construct: expressed in transfected cells; host or cells: CHOK1 cells
T1 sequence (P29275 1-332): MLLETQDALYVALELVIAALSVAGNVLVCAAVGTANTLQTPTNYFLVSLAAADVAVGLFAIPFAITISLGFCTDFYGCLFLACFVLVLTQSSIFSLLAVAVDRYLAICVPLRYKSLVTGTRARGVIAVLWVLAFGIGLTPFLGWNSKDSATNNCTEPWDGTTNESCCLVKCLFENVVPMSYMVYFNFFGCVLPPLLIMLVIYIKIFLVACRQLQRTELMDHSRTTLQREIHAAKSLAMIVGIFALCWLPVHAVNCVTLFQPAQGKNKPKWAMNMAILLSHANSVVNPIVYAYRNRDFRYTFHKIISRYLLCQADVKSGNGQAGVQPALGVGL
Method: Human adenosine A2b receptor cDNA was over-expressed in CHOK1 cells. The cells were uniformly placed on a 24-well plate at a density of 1.5×10^5cells/well, incubated overnight and then used for the assays. Affinity of the test compound for the A2b receptor was evaluated by using, as an index, the rate of suppression of the amount of cAMP produced by stimulation of an adenosine agonist NECA (30 nM) in the presence of the test compound. Thus, the plate was washed twice with 2 ml/well of Krebs-Ringer-Bicarbonate buffer (KRB) (mM) (NaCl 118, KCl 4.8, KH2PO4 1.2, MgSO4 1.2, CaCl2 3.4, HEPES 10, NaHCO3 25, pH 7.4) and then pre-incubated (0.5 ml/well) for 30 minutes. Thereafter, a mixed solution containing 600 μM Ro-20-1724 (phosphodiesterase inhibitor), 180 nM NECA, and a test compound at a concentration 6-times higher than in the reaction solution was added in an amount of […]. After 15 minutes, the reaction was stopped by replacing the reaction solution by 0.1 N HCl (300 μl/well). Measurement of cAMP was carried out using an Amersham cAMP EIA Kit.
The rate of inhibition of NECA-stimulated cAMP production by the test compound was calculated using the following equation: Rate of Inhibition (%)=[1−{(cAMP amount in the presence of NECA and test compound-Basal cAMP amount)/(cAMP amount stimulated only by NECA−Basal cAMP amount)}]×100.
IC50 was calculated from the rate of inhibition.

[2] = system: primary cultured rat hepatic cells; test: Inhibition of NECA-stimulated glucose production in primary cultured rat hepatic cells; type: cell-based; settings: primary cultured Wistar rat hepatic cells, NECA 0.1, 1 hour; read-out: IC50 for inhibition of NECA-stimulated glucose release
Method: Hepatic cells were separated by a collagenase perfusion method from livers of male rats of Wistar strain and subjected to a primary culture in a William's Medium E containing 5% calf serum, 10^−6 M insulin and 10^−7 M dexamethasone. After 1 day, the hepatic cells were washed with a Krebs-Ringer Bicarbonate buffer (mM) (NaCl 118, KCl 4.8, KH2PO4 1.2, MgSO4 1.2, CaCl2 3.4, HEPES 10, NaHCO3 25) pH 7.4 (KRB) containing 10 mM HEPES and 0.1% bovine serum albumin and KRB was added thereto, then incubated at 37° C. After 30 minutes, NECA (N-ethylcarboxamide adenosine) (final concentration: […]) and a test compound were added thereto at the same time, the mixture was incubated for additional one hour, and the amount of glucose released into the incubation medium was measured.

adenosine A2a receptor = biological target: T2, adenosine A2a receptor (Homo sapiens, UniProt P29274); test: Adenosine A2a receptor binding assay (3H-CGS21680); settings: 3H-CGS21680 binding, membrane over-expressing A2a receptor, Cheng-Prusoff; read-out: inhibition constant (Ki value)
T2 construct: purchased Receptor Biology Inc
T2 sequence (P29274 whole entry): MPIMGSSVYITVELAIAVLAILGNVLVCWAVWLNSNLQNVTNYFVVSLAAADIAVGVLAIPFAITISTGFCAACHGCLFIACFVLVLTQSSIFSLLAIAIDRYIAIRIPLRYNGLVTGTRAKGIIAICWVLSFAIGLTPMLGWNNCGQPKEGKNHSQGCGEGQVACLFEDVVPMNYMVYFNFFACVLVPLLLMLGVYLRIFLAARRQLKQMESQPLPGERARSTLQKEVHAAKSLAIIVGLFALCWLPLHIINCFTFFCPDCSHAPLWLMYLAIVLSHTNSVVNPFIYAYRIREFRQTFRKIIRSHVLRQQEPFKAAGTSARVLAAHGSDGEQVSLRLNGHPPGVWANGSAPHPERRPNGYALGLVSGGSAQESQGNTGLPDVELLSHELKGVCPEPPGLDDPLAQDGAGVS
Method: A membrane specimen prepared by over-expression of adenosine A2a receptor was purchased from Receptor Biology Inc., and used to carry out adenosine A2a receptor binding assays. The purchased membrane specimen was suspended at a concentration of 22.2 μg/ml inan incubation buffer (20 mM HEPES, 10 mm MgCl2 and 100 mM NaCl, pH 7.4). To 0.45 ml of this membrane specimen were added 0.25ml of tritium-labeled^3H-CGS21680 (500 nM; 30 Ci/mmol) and 0.025 ml of the test compound. The solution of the test compound was prepared by dissolving the compound at a concentration of 20 mM in DMSO and then successively diluting the solution 10-fold with the incubation buffer. […] Thereafter, the glass fiber filter was transferred to a vial bottle, a scintillator was added thereto, and the radioactivity on the filter was measured by a liquid scintillation counter. The rate of inhibition of (^3H-CGS21680) binding to the A2a receptor by the test compound was calculated using the following equation, and from this rate of inhibition, IC50 was calculated. […]
The total binding amount is ^3H-CGS21680 binding radioactivity in the absence of the test compound. The non-specific binding amount is ^3H-CGS21680 binding radioactivity in the presence of […] of RPIA. The binding amount in the presence of drug is ^3H-CGS21680 binding radioactivity in the presence of the test compound of various concentrations. […]

[3] = system: spontaneously diabetic mice (KK-Ay/Ta Jcl); test: Action on hyperglycemia in spontaneously diabetic mice (single administration); type: in vivo; settings: male KK-Ay/Ta Jcl mice, 10 mg/kg oral, p < 0.01 vs. control (72.5 ± 3.7)
Method: Animals: Seven male KK-A^y/Ta Jcl mice for each group (purchased from Nippon Clair) Preparation and Administration of Test Compound: A test compound in a dose as shown in Table 1 was suspended in 0.5% aqueous methyl cellulose solution and was orally administered in a volume of 10 ml/kg. Collection of Blood Samples and Determination of Blood Sugar: Blood was collected from tail veins just before administration of the test compound and also 5 hours after the administration and blood sugar was determined. Method: Tail vein of a mouse was injured by a razor without anesthetization to bleed slightly. The blood (15 μl) was collected and immediately mixed with 135 μl of 0.6 M perchloric acid. Glucose in the supernatant separated by centrifugation (at 1500 g for10 minutes at 4° C. usingacooling centrifuge GS-6KR from Beckmann) was determined by Glucose CII Test Wako (Wako Pure Chemicals). The results are shown in terms of “(% ratio of blood sugar 5 hours after the administration to the blood sugar before the administration)±(standard error)”. The data were subjected to one-way layout analysis of variance and then subjected to multiple comparison of Dunnett type. Difference with p<0.05 was deemed significant.

Row | pIC50 [1] | pIC50 [2] | pKi (adenosine A2a receptor) | SMILES | % ratio of blood sugar 5 hours after the administration to the blood sugar before the administration ± standard error [3]
1 | 7.96 | 8.12 | 8.49 | Cl.Cn1cc(-n2c(-c3cccc(F)c3)nc3c(N)ncnc32)ccc1=O [Example 5, 5-[6-Amino-8-(3-fluorophenyl)-9H-9-purinyl]-1-methyl-1,2-dihydro-2-pyridinone hdrochloride] | 47.3 ± 7.2%
2 |  | 8.08 | 8.02 | C=CCn1c(-c2cccc(F)c2)nc2c(N)nc(C#CC3(O)CCC3)nc21 [Example 20, 1-{2-[9-Allyl-6-amino-8-(3-fIuorophenyl)-9H-2-purinyl]-1-ethynyl]}-1-cyclobutanol hydrochloride] | 

— patent US6841549B1, “Condensed imidazole compounds and a therapeutic agent for diabetes mellitus” (Eisai Co., Ltd., priority 1999, dated 2005)
